Results on 21 compounds are retold here after US8653100B2 (AbbVie Inc., priority 2008, dated 2014).

Structures are written as SMILES. Where a name gives a salt, the structure may show the parent alone. Some results are limits rather than exact numbers.

human GlyT1c transporter, sequence (P48067 whole entry): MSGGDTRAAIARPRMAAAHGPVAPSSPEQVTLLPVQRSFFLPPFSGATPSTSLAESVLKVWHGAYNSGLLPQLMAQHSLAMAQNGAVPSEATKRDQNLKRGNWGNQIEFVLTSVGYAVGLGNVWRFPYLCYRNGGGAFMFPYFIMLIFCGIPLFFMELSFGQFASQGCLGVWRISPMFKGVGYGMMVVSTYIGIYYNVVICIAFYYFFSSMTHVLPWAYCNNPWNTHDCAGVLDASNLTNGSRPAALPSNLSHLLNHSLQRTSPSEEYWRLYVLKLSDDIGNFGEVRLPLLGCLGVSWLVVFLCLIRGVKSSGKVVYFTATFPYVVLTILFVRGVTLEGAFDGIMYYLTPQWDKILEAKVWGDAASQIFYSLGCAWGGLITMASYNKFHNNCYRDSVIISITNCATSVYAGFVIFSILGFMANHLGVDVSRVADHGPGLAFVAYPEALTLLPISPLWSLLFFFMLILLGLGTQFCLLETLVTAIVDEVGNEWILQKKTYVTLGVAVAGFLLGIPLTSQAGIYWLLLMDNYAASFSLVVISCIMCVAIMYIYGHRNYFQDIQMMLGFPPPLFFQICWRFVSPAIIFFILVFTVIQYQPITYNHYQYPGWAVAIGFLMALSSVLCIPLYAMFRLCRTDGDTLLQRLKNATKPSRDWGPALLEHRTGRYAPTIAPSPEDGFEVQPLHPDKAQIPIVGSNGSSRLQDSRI

For this assay, the target named is human GlyT1c transporter (Homo sapiens (Human), UniProt P48067). Description: Radioligand binding assay using recombinant CHO cell membranes expressing human GlyT1. The conditions noted are these: examples 88-204, radioligand not specified by footnote, read-out: radioligand binding Kiapp. As for the experimental part:
2. Radioligand binding assays using recombinant CHO cell membranes expressing human GlyT1:
Radioligand binding to human GlyT1c transporter-expressing membranes was carried out as described in Mezler et al., Molecular Pharmacology 74:1705-1715, 2008.
More specifically, [^3H]-(R)-NPTS radioligand binding to human GlyT1c transporter-expressing membranes was measured in duplicate in a total volume of 200 μl in 96-well plates. To 100 μl of membrane suspension (yielding a final membrane protein concentration of 50 μg/ml) in assay buffer (120 mM NaCl, 2 mM KCl, 10 mM Hepes, 1 mM MgCl2, 1 mM CaCl2, pH 7.5) […] of [^3H]-(R)-NPTS (0.5 nM final) were added in assay buffer. For competition experiments 10 μl of buffer or unlabeled compound solution obtained from dilution series of test compounds in DMSO followed. An intermediate 1:10 dilution in assay buffer yielded a final DMSO concentration of 1%. Non-specific binding was determined in the presence of 10 μM Org24598 (or its racemate Org24461) for [^3H]-(R)-NPTS. After incubation at room temperature for 1 h, the incubation mixture was harvested (Tomtec Mach III U Harvester) through 96-well GF/B filter plates (PerkinElmer), presoaked for 1 h with 40 μl per well of 0.1% polyethylene-imine (PEI). After washing twice with ice-cold 50 mM Tris-HCl pH 7.4 buffer, drying and addition of 35 μl scintillator (BetaplateScint, PerkinElmer) per well followed. The radioactivity was determined by liquid scintillation spectrometry in a MicroBeta (PerkinElmer) plate counter.
Data analysis: For binding of [^3H]-(R)-NPTS to cell membranes, the calculation of Kd and Bmax values from the saturation binding assays and the IC50 values from the displacement binding was performed by iterative non-linear regression analysis adapted from the ‘Ligand’ program (Munson and Rodbard, 1980). Radioligand displacement curves in absence or in presence of increasing concentrations of tested compounds were fitted using a one-site fit and the apparent Ki values were calculated from the IC50 values using the Cheng-Prusoff equation (Cheng and Prusoff 1973).
As for `Cn1cc(S(=O)(=O)NCCOc2ccc3c(c2)C(C2(c4ccc(Cl)cc4)CC(F)(F)C2)NCC3)cn1` (single isomer, unassigned) [Example 138, N-[2-({1-[1-(4-Chlorophenyl)-3,3-difluorocyclobutyl]-1,2,3,4-tetrahydroisoquinolin-7-yl}oxy)ethyl]-1-methyl-1H-pyrazole-4-sulfonamide], the Ki was at most 100 nM. The result for `O=S(=O)(NCCOc1ccc2c(c1)C(C1(c3ccc(Cl)cc3)CCC1)NCC2)C1CCNC1` (single isomer, unassigned) [Example 148, N-[2-({1-[1(4-Chlorophenyl)cyclobutyl]-1,2,3,4-tetrahydroisoquinolin-7-yl}oxy)ethyl]pyrrolidine-3-sulfonamide dihydrochloride] reads at most 100 nM.

For the compound `O=S(=O)(NCCOc1ccc2c(c1)C(C1(c3ccc(Cl)cc3)CCC1)NCC2)C1CCNC1` (single isomer, unassigned) [Example 151, N-[2-({1-[1-(4-Chlorophenyl)cyclobutyl]-1,2,3,4-tetrahydroisoquinolin-7-yl}oxy)ethyl]pyrrolidine-3-sulfonamide dihydrochloride], the Ki was at most 100 nM. The result for `NCCS(=O)(=O)NCCOc1ccc2c(c1)C(C1(c3ccc(Cl)cc3)CCC1)NCC2` (single isomer, unassigned) [Example 158, 2-Amino-N-[2-({1-[1-(4-chlorophenyl)cyclobutyl]-1,2,3,4-tetrahydroisoquinolin-7-yl}oxy)ethyl]ethanesulfonamide dihydrochloride] reads at most 100 nM; that for `O=S(=O)(NCCOc1ccc2c(c1)C(C1(c3ccc(Cl)cc3)CCC1)NCC2)C1CCCNC1` (single isomer, unassigned) [Example 160, N-[2-({1-[1-(4-Chlorophenyl)cyclobutyl]-1,2,3,4-tetrahydroisoquinolin-7-yl}oxy)ethyl]piperidine-3-sulfonamide dihydrochloride], at most 100 nM. As for `O=S(=O)(NCCOc1ccc2c(c1)C(C1(c3ccc(Cl)cc3)CCC1)NCC2)C1CCCNC1` (single isomer, unassigned) [Example 164, N-[2-({1-[1-(4-Chlorophenyl)cyclobutyl]-1,2,3,4-tetrahydroisoquinolin-7-yl}oxy)ethyl]piperidine-3-sulfonamide dihydrochloride], the Ki was at most 1000 nM. In the case of `Cn1cc(S(=O)(=O)NCCOc2ccc3c(c2)C(C2(c4ccc(Cl)cc4)CC(F)(F)C2)NCC3)cn1` (single isomer, unassigned) [Example 168, N-[2-({1-[1-(4-Chlorophenyl)-3,3-difluorocyclobutyl]-1,2,3,4-tetrahydroisoquinolin-7-yl}oxy)ethyl]-1-methyl-1H-pyrazole-4-sulfonamide], the Ki was at most 1000 nM.

For `O=S(=O)(NCCOc1ccc2c(c1)C(C1(c3ccc(Cl)cc3)CCC1)NCC2)C1CCNC1` (single isomer, unassigned) [Example 172, N-[2-({1-[1-(4-Chlorophenyl)cyclobutyl]-1,2,3,4-tetrahydroisoquinolin-7-yl}oxy)ethyl]pyrrolidine-3-sulfonamide dihydrochloride], the Ki was at most 10000 nM. The result for `O=S(=O)(NCCOc1ccc2c(c1)C(C1(c3ccc(Cl)cc3)CCC1)NCC2)C1CCNC1` (single isomer, unassigned) [Example 175, N-[2-({1-[1-(4-Chlorophenyl)cyclobutyl]-1,2,3,4-tetrahydroisoquinolin-7-yl}oxy)ethyl]pyrrolidine-3-sulfonamide dihydrochloride] reads at most 10000 nM; that for `O=S(=O)(NCCOc1ccc2c(c1)C(C1(c3ccc(Cl)cc3)CCC1)NCC2)C1CCCNC1` (single isomer, unassigned) [Example 192, N-[2-({1-[1-(4-Chlorophenyl)cyclobutyl]-1,2,3,4-tetrahydroisoquinolin-7-yl}oxy)ethyl]piperidine-3-sulfonamide dihydrochloride], at most 10000 nM. The result for `O=S(=O)(NCCOc1ccc2c(c1)C(C1(c3ccc(Cl)cc3)CCC1)NCC2)C1CCCNC1` (single isomer, unassigned) [Example 193, N-[2-({1-[1-(4-Chlorophenyl)cyclobutyl]-1,2,3,4-tetrahydroisoquinolin-7-yl}oxy)ethyl]piperidine-3-sulfonamide dihydrochloride] reads at most 10000 nM; that for `C/C=C/S(=O)(=O)NCCOc1ccc2c(c1)C(C1(c3ccc(Cl)cc3)CCC1)NCC2` (stereo not drawn) [Example 88, (1E)-N-[2-({1-[1-(4-Chlorophenyl)cyclobutyl]-1,2,3,4-tetrahydroisoquinolin-7-yl}oxy)ethyl]prop-1-ene-1-sulfonamide hydrochloride], at most 100 nM.

Take `CCCS(=O)(=O)NCCNc1ccc2c(c1)C(C1(c3ccc(Cl)cc3)CCC1)NCC2` (stereo not drawn) [Example 89, N-[2-({1-[1-(4-Chlorophenyl)cyclobutyl]-1,2,3,4-tetrahydroisoquinolin-7-yl}amino)ethyl]propane-1-sulfonamide dihydrochloride]: the Ki was at most 100 nM.

Take `CCCS(=O)(=O)NCc1ccc2c(c1)C(C1(c3ccc(Cl)cc3)CCC1)NCC2` (stereo not drawn) [Example 90, N-({1-[1-(4-Chlorophenyl)cyclobutyl]-1,2,3,4-tetrahydroisoquinolin-7-yl}methyl)propane-1-sulfonamide hydrochloride]: the Ki is at most 100 nM. As to `Cn1cc(S(=O)(=O)NCc2ccc3c(c2)C(C2(c4ccc(Cl)cc4)CCC2)NCC3)cn1` (stereo not drawn) [Example 91, N-({1-[1-(4-Chlorophenyl)cyclobutyl]-1,2,3,4-tetrahydroisoquinolin-7-yl}methyl)-1-methyl-1H-pyrazole-4-sulfonamide trifluoroacetate], the Ki was at most 100 nM. The result for `N#Cc1ccc2c(c1)C(C1(c3ccc(Cl)cc3)CCC1)NCC2` (stereo not drawn) [Example 92, 1-[1-(4-Chlorophenyl)cyclobutyl]-1,2,3,4-tetrahydroisoquinoline-7-carbonitrile hydrochloride] reads at most 100 nM; that for `Cn1cnc(S(=O)(=O)NCc2ccc3c(c2)C(C2(c4ccc(Cl)cc4)CCC2)NCC3)c1` (stereo not drawn) [Example 93, N-({1-[1-(4-Chlorophenyl)cyclobutyl]-1,2,3,4-tetrahydroisoquinolin-7-yl}methyl)-1-methyl-1 H-imidazole-4-sulfonamide hydrochloride], at most 100 nM.

In the case of `O=S(=O)(CCCF)NCc1ccc2c(c1)C(C1(c3ccc(Cl)cc3)CCC1)NCC2` (stereo not drawn) [Example 94, N-({1-[1-(4-Chlorophenyl)cyclobutyl]-1,2,3,4-tetrahydroisoquinolin-7-yl}methyl)-3-fluoropropane-1-sulfonamide hydrochloride], the Ki is at most 100 nM. On to `CCCS(=O)(=O)NCc1ccc2c(c1)C(C(C)(C)c1ccc(Cl)cc1)NCC2` (stereo not drawn) [Example 96, N-({1-[2-(4-Chlorophenyl)propan-2-yl]-1,2,3,4-tetrahydroisoquinolin-7-yl}methyl)propane-1-sulfonamide hydrochloride], for which the Ki is at most 100 nM. For `O=S(=O)(CCO)NCCOc1ccc2c(c1)C(C1(c3ccc(Cl)cc3)CCC1)NCC2` (stereo not drawn) [Example 97, N-[2-({1-[1-(4-Chlorophenyl)cyclobutyl]-1,2,3,4-tetrahydroisoquinolin-7-yl}oxy)ethyl]-2-hydroxyethanesulfonamide hydrochloride] the value was at most 100 nM; for `CCCS(=O)(=O)NCCOc1ccc2c(c1)C(C1(c3ccccn3)CCC1)NCC2` (stereo not drawn) [Example 98, N-[2-({1-[1-(Pyridin-2-yl)cyclobutyl]-1,2,3,4-tetrahydroisoquinolin-7-yl}oxy)ethyl]propane-1-sulfonamide dihydrochloride], at most 100 nM.
